Each block holds one compound with its values, some of them ahead of it.
Assays:
P-gp [1] = biological target: T1, P-gp (Homo sapiens, UniProt P08183); test: in vitro; settings: MDCK-MDR1
MRP2 [2] = biological target: T2, MRP2 (Homo sapiens, UniProt Q92887); test: in vitro
[3] = ref Allen et al., 2000, Zhanel and Noreddin, 2001, cited from earlier work
MDCKII-MDR1 cells [4] = test: ATP assay in MDCKII-MDR1 cells; type: cell-based, canine; settings: 150min
MDCKII-MRP2 cells [5] = test: ATP assay in MDCKII-MRP2 cells; type: cell-based, canine; settings: 150min
MDCKII-MDR1 cells [6] = test: Cell proliferative; type: cell-based, canine; settings: 150min
MDCKII-MRP2 cells [7] = test: Cell proliferative; type: cell-based, canine; settings: 150min
LS-180 cells = test: [14C] erythromycin uptake in treated LS-180 cells; type: cell-based, human; settings: LS-180 cells treated 72hrs; gemifloxacin 2.5, 5, 7.5μM, rifampin 10μM
P-gp [8] = biological target: T1, P-gp; settings: MDCK-MDR1, 150 min
P-gp [9] = biological target: T1, P-gp; test: cell-based
MRP2 [10] = biological target: T2, MRP2; test: cell-based
P-gp [11] = biological target: T1, P-gp; test: Cellular accumulation of calcein-AM in MDCKII-MDR1 cells; type: cell-based; settings: calcein-AM 0.05μM, 15min, quinidine 100μM, gemifloxacin 250μM
[12] = all concentrations 1μM to 1000μM except 1000μM
[13] = gemifloxacin 1000μM, data not shown
[14] = all other concentrations (1μM to below 1000μM)

T1 sequence (P08183 whole entry): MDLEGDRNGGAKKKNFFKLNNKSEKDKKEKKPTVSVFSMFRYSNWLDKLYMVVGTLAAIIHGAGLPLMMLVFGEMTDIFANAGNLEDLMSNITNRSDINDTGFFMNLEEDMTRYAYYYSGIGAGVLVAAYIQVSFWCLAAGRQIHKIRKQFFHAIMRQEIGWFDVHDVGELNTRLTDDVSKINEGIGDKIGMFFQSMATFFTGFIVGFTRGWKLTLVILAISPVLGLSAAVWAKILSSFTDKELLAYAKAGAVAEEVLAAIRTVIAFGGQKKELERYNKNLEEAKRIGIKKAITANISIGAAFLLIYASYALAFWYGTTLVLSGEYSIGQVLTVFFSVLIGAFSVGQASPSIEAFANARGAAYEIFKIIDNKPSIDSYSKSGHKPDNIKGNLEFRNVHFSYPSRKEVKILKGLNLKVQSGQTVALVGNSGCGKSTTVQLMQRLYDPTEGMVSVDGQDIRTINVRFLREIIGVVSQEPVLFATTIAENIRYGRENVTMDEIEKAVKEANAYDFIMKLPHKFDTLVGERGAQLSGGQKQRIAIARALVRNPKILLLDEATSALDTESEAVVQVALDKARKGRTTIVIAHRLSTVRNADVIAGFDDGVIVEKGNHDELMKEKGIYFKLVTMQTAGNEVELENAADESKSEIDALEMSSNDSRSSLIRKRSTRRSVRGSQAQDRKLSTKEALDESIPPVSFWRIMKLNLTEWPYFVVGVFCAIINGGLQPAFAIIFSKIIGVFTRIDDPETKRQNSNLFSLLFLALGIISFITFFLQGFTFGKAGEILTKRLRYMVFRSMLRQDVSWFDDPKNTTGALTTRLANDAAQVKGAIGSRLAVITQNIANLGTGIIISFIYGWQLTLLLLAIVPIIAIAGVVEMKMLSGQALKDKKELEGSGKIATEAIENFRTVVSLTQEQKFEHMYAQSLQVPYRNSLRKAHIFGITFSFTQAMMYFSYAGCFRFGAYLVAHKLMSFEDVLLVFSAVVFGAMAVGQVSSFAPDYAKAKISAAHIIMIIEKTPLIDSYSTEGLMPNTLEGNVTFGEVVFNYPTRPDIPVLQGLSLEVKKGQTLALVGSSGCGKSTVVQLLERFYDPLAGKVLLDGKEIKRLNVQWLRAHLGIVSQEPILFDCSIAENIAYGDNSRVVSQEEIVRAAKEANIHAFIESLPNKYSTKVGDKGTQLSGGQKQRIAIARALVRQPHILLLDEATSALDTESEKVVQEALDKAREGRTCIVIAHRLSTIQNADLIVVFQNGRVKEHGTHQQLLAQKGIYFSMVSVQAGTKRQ
T2 sequence (Q92887 whole entry): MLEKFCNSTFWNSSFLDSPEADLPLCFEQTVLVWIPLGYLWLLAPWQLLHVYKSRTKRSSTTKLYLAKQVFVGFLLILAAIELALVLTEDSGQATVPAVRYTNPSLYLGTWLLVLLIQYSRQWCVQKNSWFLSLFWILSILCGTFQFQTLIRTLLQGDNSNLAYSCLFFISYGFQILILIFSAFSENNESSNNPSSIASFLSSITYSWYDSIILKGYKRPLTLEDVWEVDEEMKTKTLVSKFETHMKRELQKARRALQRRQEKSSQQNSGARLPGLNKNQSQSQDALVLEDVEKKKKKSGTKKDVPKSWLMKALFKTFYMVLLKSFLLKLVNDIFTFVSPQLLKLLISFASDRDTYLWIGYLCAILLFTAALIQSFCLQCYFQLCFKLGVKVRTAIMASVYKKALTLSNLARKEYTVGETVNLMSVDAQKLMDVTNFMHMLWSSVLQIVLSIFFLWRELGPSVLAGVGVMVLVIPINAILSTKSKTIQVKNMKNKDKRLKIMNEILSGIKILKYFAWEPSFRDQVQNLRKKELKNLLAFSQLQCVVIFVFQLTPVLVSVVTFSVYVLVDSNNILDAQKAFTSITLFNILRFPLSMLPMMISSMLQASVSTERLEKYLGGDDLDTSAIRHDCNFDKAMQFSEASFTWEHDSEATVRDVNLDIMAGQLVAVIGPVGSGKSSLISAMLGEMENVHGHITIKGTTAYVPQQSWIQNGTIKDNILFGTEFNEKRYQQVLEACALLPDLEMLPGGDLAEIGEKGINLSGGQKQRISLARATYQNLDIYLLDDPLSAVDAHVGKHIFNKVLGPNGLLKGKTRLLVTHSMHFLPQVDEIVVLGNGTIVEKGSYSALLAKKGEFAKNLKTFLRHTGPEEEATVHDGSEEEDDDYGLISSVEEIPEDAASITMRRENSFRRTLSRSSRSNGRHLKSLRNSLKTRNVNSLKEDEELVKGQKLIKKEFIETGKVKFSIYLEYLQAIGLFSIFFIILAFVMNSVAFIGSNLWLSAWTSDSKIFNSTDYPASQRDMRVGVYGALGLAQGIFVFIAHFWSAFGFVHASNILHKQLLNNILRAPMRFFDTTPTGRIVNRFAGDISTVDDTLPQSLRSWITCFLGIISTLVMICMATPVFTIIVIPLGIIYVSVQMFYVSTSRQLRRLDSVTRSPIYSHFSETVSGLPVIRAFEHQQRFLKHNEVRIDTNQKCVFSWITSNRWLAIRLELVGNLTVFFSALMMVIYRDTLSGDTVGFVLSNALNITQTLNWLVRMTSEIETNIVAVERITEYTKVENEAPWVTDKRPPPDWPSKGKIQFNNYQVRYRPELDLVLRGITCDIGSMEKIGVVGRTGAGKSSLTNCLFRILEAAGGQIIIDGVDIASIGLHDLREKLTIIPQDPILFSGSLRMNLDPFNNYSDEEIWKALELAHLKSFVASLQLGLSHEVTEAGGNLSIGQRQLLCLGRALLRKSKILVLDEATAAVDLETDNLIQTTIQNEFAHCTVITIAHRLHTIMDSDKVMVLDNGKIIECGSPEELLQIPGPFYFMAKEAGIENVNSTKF

Apparent permeability of [14C] erythromycin, AP-BL, in presence of test compound (P-gp [8]): 5.24 ± 0.52 × 10-6 cm/sec | Apparent permeability of [14C] erythromycin, BL-AP, in presence of test compound (P-gp [8]): 7.38 ± 0.72 × 10-6 cm/sec | IC50 (P-gp [9]): 123 ± 2 µM | IC50 (MRP2 [10]): 16 ± 2 µM
SMILES: CO/N=C1\CN(c2nc3c(cc2F)c(=O)c(C(=O)O)cn3C2CC2)CC1CN (stereo not drawn) [gemifloxacin]
Effect on ATP levels compared to control (MDCKII-MDR1 cells [4]; [12]): did not significantly alter ATP levels | Increase in ATP level (MDCKII-MDR1 cells [4]; [13]): ~15% | Effect on ATP levels compared to control (MDCKII-MRP2 cells [5]; [12]): did not significantly alter ATP levels | Increase in ATP level (MDCKII-MRP2 cells [5]; [13]): ~10% | Cytotoxicity (MTS) (MDCKII-MDR1 cells [6]; [14]): non-cytotoxic | Decrease in cell viability (MTS) (MDCKII-MDR1 cells [6]; [13]): ~25% | Cytotoxicity (MTS) (MDCKII-MRP2 cells [7]; [14]): non-cytotoxic | Decrease in cell viability (MTS) (MDCKII-MRP2 cells [7]; [13]): ~20% | Decrease in cellular accumulation of [14C] erythromycin post treatment (LS-180 cells): ~20% | Time to peak concentration ([3]; oral administration): 0.5 to 2 h | Absolute (oral) bioavailability [3]: 71%

Increase in intracellular calcein fluorescence (P-gp [11]): doubled
SMILES: C=C[C@H]1C[N@@]2CC[C@H]1C[C@@H]2[C@@H](O)c1ccnc2ccc(OC)cc12 [quinidine]

More lines, now with the values behind:

SMILES: CC[C@H]1OC(=O)[C@H](C)[C@@H](O[C@H]2C[C@@](C)(OC)[C@@H](O)[C@H](C)O2)[C@H](C)[C@@H](O[C@@H]2O[C@H](C)C[C@H](N(C)C)[C@H]2O)[C@](C)(O)C[C@@H](C)C(=O)[C@H](C)[C@@H](O)[C@]1(C)O [[^14C] erythromycin, erythromycin]
Papp A→B at 150 min (P-gp [1]): 2.96 ± 0.37 ×10⁻⁶ cm/s | Papp B→A at 150 min (P-gp [1]): 10.6 ± 0.86 ×10⁻⁶ cm/s | efflux ratio at 150 min (P-gp [1]): 3.56 | Papp A→B at 150 min (MRP2 [2]): 3.76 ± 1.37 ×10⁻⁶ cm/s | Papp B→A at 150 min (MRP2 [2]): 18.5 ± 1.94 ×10⁻⁶ cm/s | efflux ratio at 150 min (MRP2 [2]): 4.93

SMILES: COc1c(N2CCNC(C)C2)c(F)cc2c(=O)c(C(=O)O)cn(C3CC3)c12 (stereo not drawn) [gatifloxacin]
Absolute (oral) bioavailability [3]: 96%

SMILES: CO[C@H]1/C=C/O[C@@]2(C)Oc3c(C)c(O)c4c(O)c(c(/C=N/N5CCN(C)CC5)c(O)c4c3C2=O)NC(=O)/C(C)=C\C=C\[C@H](C)[C@H](O)[C@@H](C)[C@@H](O)[C@@H](C)[C@H](OC(C)=O)[C@@H]1C [rifampin]
Decrease in cellular accumulation of [14C] erythromycin post treatment (LS-180 cells): ~20%
